Molecular target: Beta-secretase 1 (Homo sapiens, UniProt P56817)
Assay: Activity Assay: The activity assay for the compound of each example was carried out in this experimental example, and the detailed test method was as follows:1. The test compound was formulated as 10 μmol/L solution in dimethylsulfoxide;2. Starting from 10 μmol/L, by 3-fold serial dilution, the inhibitory activity of each compound against the enzyme was tested in singlet state at 10 doses;3. IC50 values of test compounds were finally obtained.

Sequence of Beta-secretase 1 (P56817 whole entry): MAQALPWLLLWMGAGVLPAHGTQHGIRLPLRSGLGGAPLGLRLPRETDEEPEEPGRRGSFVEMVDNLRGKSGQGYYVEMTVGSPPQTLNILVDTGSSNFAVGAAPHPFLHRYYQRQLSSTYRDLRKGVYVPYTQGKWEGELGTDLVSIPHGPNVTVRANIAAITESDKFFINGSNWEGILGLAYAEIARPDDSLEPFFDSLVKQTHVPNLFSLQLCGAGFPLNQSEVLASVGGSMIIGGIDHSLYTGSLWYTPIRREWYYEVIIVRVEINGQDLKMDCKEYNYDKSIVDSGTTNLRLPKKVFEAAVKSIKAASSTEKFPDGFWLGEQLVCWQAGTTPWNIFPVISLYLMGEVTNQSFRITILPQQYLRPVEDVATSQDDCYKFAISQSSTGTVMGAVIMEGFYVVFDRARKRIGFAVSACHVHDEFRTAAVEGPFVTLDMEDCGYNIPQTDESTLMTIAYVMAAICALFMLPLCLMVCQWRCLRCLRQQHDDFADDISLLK

**Q.** How did the IC50 turn out when `C[C@H]1C[C@@]2(F)CSC(N)=N[C@@]2(c2cccc(NC(=O)c3ccc(Cl)cn3)c2)CO1` was run?
**A.** The IC50 was 213 nM.

Source: ChEMBL document CHEMBL5728220, “[1,3]thiazin-2-amine compound, application, and pharmaceutical composition” (2021)
